Laboratory results reported in patent publication US5837256A, “Method for treatment of Lupus nephritis” (priority 1996, dated 1998).

How the values were obtained:
[1] = relative to Seco; cited from earlier work
[2] = Gut absorption/conversion of SDG after oral intake; type: in vivo; conditions: human or animal
Description: Enterodiol and enterolactone are trivially referred to as lignans and contain a structural backbone of dibenzylbutane. The most abundant lignan detected in flax is secoisolariciresinol diglucoside (SDG).
The secoisolariciresinol (Seco) may be used per se or in the form of secoisolariciresinol diglucoside (SDG).

[3] = system: MRL/lpr mouse model of lupus; experiment: Cervical lymph node weight in MRL/lpr mice (lymphadenopathy); type: in vivo; conditions: for cervical lymph node weights: n = 10
Protocol: (§1) The MRL/lpr mouse model of lupus was chosen to study the effects of SDG on experimental nephritis since it represents the human disease in terms of immune and inflammatory reactions, and age-related renal function deterioration leading to progressive glomerular scarring.
(§2) Mice were obtained at 5 weeks of age from Jackson Laboratories, Me., U.S.A., and acclimatized for one week. From 6 weeks of age onwards, all groups were gavaged with 200 μl/day of water. The appropriate amount of SDG was dissolved in the water to administer either the low-dose (600 μg/day) or the high-dose (1200 μg/day) of SDG.
We therefore examined the effects of low and high dosages of SDG on a deep cervical lymph node in these animals.
The data was non-normally distributed therefore, a non parametric (Kruskal-Wallis) statistical test was used.

[4] = system: MRL/lpr mouse model of lupus; experiment: Spleen weight index in MRL/lpr mice (splenomegaly); type: in vivo; conditions: for Spleen Weight/Body Weight Ratio (×100): n = 10
Protocol: as §1, §2
We therefore examined the effects of low and high dosages of SDG on spleen weight. The spleen weight index was obtained as a ratio of spleen to body weight (×100).
Data analyzed by ANOVA followed by Bonferroni t-tests

[5] = Body weight (and food/water intake) of MRL/lpr lupus mice; type: in vivo, MRL/lpr mouse
Protocol: The MRL/lpr mouse model of lupus was chosen to study the effects of SDG on experimental nephritis since it represents the human disease in terms of immune and inflammatory reactions, and age-related renal function deterioration leading to progressive glomerular scarring. Mice were obtained at 5 weeks of age from Jackson Laboratories, Me., U.S.A., and acclimatized for one week. From 6 weeks of age onwards, all groups were gavaged with 200 μl/day of water. The appropriate amount of SDG was dissolved in the water to administer either the low-dose (600 μg/day) or the high-dose (1200 μg/day) of SDG. This example illustrates the effect of SDG on the body weight of MRL/lpr lupus mice in compared to the control group. The daily dosage was administered over a 17-week period (6 to 22 weeks of age).

[6] = system: MRL/lpr mouse model of lupus; experiment: Onset and prevalence of proteinuria (Albustix) in MRL/lpr lupus mice; type: in vivo
Protocol: as §1, §2
Gavaging was commenced at the age of 6 weeks in all groups.

[7] = system: MRL/lpr mouse model of lupus; experiment: Glomerular filtration rate (14C-inulin clearance) in MRL/lpr mice; type: in vivo
Protocol: as §1, §2
This example illustrates the effect of SDG on the glomerular filtration rate (GFR) assessed by ^14 C-inulin clearance.

[8] = cited from earlier work
[9] = system: LDL cholesterol, cell mediated immunity, PAF production by PMN leucocytes, platelet aggregation; conditions: cited from earlier work
[10] = Lignan content of urine of mice gavaged with SDG; conditions: after oral SDG 0.6, 1.2 and 4.8 mg/mouse (FIG. 1)
Protocol: The mice were dosed with the SDG in amounts of 0.6, 1.2 and 4.8 mg/mouse. Urine samples from the mice were then analysed for lignans.

[11] = High-Lignan gp (1200 μg/day), age wk9
[12] = High-Lignan gp (1200 μg/day), age wk11
[13] = High-Lignan gp (1200 μg/day), age wk13
[14] = High-Lignan gp (1200 μg/day), age wk15
[15] = High-Lignan gp (1200 μg/day), age wk17
[16] = High-Lignan gp (1200 μg/day), age wk19
[17] = High-Lignan gp (1200 μg/day), age wk21
[18] = Low-Lignan gp (600 μg/day), age wk9
[19] = Low-Lignan gp (600 μg/day), age wk11
[20] = Low-Lignan gp (600 μg/day), age wk13
[21] = Low-Lignan gp (600 μg/day), age wk15
[22] = Low-Lignan gp (600 μg/day), age wk17
[23] = Low-Lignan gp (600 μg/day), age wk19
[24] = Low-Lignan gp (600 μg/day), age wk21

For COc1cc(C[C@@H](CO[C@@H]2O[C@H](CO)[C@@H](O)[C@H](O)[C@H]2O)[C@H](CO[C@@H]2O[C@H](CO)[C@@H](O)[C@H](O)[C@H]2O)Cc2ccc(O)c(OC)c2)ccc1O [SDG, secoisolariciresinol diglucoside], the “water solubility compared with Seco” value [1] is listed as “greater water solubility”, the “conversion in the gut after oral administration” value [2] is listed as “converted to secoisolariciresinol in the gut” and the “reducing cell proliferation, a marker of immune and inflammatory activity” value ([3]; Examples 5 and 6 taken together) is listed as “moderate benefits”. The “cervical lymph node weights” value ([3]; High-Lignan (1200 μg/day), 14 wks of age) was 71 ± 65 mg, the “cervical lymph node weights” value ([3]; High-Lignan (1200 μg/day), 22 wks of age, a,b: significantly greater than baseline and than 14 week values) was 211 ± 58 mg and the “cervical lymph node weights” value ([3]; Low-Lignan (600 μg/day), 14 wks of age, a: significantly greater than baseline) was 97 ± 69 mg. The “cervical lymph node weights” value ([3]; Low-Lignan (600 μg/day), 22 wks of age, a: significantly greater than baseline) was 251 ± 91 mg, the “increase in lymph node weight” value ([3]; high dose (1200 μg/day), at/up to 14 weeks of age, Kruskal-Wallis) was “attenuated the increase in lymph node weight” and the “spleen weight index in the different groups” value ([4]; 600 and 1200 μg/day, ANOVA, Bonferroni t-tests) was “no significant difference”. For the same molecule, the “Spleen Weight/Body Weight Ratio (×100)” value ([4]; High-Lignan (1200 μg/day), 14 wks of age, marked a) was 0.77 ± 0.26, the “Spleen Weight/Body Weight Ratio (×100)” value ([4]; High-Lignan (1200 μg/day), 22 wks of age, marked a,b) was 1.74 ± 0.35 and the “Spleen Weight/Body Weight Ratio (×100)” value ([4]; Low-Lignan (600 μg/day), 14 wks of age, marked a) was 0.93 ± 0.33. The “Spleen Weight/Body Weight Ratio (×100)” value ([4]; Low-Lignan (600 μg/day), 22 wks of age, marked a,b) was 1.89 ± 0.39, the “spleen weight gain compared to other groups” value ([4]; high dose SDG group, 14 weeks age-interval) was “moderately smaller spleen weight gain” and the food intake ([5]; 600 and 1200 μg/day) was “no significant difference”. For the same molecule, the water intake ([5]; 600 and 1200 μg/day) was “no significant difference”, the “body weight gain in the different treatment groups” value ([5]; 600 and 1200 μg/day, 6 to 22 weeks of age) was “no significant difference” and the “Body Weight” value ([5]; High-Lignan gp (1200 μg/day), age w22) was 38 ± 3 g. For the same molecule, the “Body Weight” value ([5]; High-Lignan gp (1200 μg/day), age wk5 (before gavage, which began at 6 weeks)) was 25 ± 2 g, the “Body Weight” value ([5]; High-Lignan gp (1200 μg/day), age wk7) was 26 ± 2 g and the “Body Weight” value [5, 11] was 27 ± 2 g. The “Body Weight” value [5, 12] was 29 ± 2 g, the “Body Weight” value [5, 13] was 31 ± 3 g and the “Body Weight” value [5, 14] was 34 ± 3 g. For the same molecule, the “Body Weight” value [5, 15] was 37 ± 3 g, the “Body Weight” value [5, 16] was 38 ± 3 g and the “Body Weight” value [5, 17] was 39 ± 3 g. For the same molecule, the “Body Weight” value ([5]; Low-Lignan gp (600 μg/day), age w22) was 38 ± 3 g, the “Body Weight” value ([5]; Low-Lignan gp (600 μg/day), age wk5 (before gavage, which began at 6 weeks)) was 25 ± 2 g and the “Body Weight” value ([5]; Low-Lignan gp (600 μg/day), age wk7) was 26 ± 3 g. For the same molecule, the “Body Weight” value [5, 18] was 27 ± 3 g, the “Body Weight” value [5, 19] was 29 ± 3 g and the “Body Weight” value [5, 20] was 31 ± 3 g. For the same molecule, the “Body Weight” value [5, 21] was 33 ± 3 g, the “Body Weight” value [5, 22] was 36 ± 3 g and the “Body Weight” value [5, 23] was 37 ± 3 g. For the same molecule, the “Body Weight” value [5, 24] was 38 ± 4 g, the “% of mice with ≥ 2 proteinuria on Albustix” value (“% of mice” for short) [6, 11] was 0% and the “% of mice” value ([6]; High-Lignan gp (1200 μg/day), age wk 10) was 0%. For the same molecule, the “% of mice” value [6, 12] was 4%, the “% of mice” value ([6]; High-Lignan gp (1200 μg/day), age wk 12) was 4% and the “% of mice” value [6, 13] was 4%. For the same molecule, the “% of mice” value ([6]; High-Lignan gp (1200 μg/day), age wk 14) was 4%, the “% of mice” value [6, 14] was 7% and the “% of mice” value ([6]; High-Lignan gp (1200 μg/day), age wk 16) was 7%. For the same molecule, the “% of mice” value [6, 15] was 7%, the “% of mice” value ([6]; High-Lignan gp (1200 μg/day), age wk 18) was 21% and the “% of mice” value [6, 16] was 36%. For the same molecule, the “% of mice” value ([6]; High-Lignan gp (1200 μg/day), age wk 20) was 50%, the “% of mice” value [6, 17] was 43% and the “% of mice” value ([6]; High-Lignan gp (1200 μg/day), age wks 6-8) was 0%. The “% of mice” value [6, 18] was 0%, the “% of mice” value ([6]; Low-Lignan gp (600 μg/day), age wk 10) was 0% and the “% of mice” value [6, 19] was 0%. For the same molecule, the “% of mice” value ([6]; Low-Lignan gp (600 μg/day), age wk 12) was 0%, the “% of mice” value [6, 20] was 0% and the “% of mice” value ([6]; Low-Lignan gp (600 μg/day), age wk 14) was 17%. For the same molecule, the “% of mice” value [6, 21] was 21%, the “% of mice” value ([6]; Low-Lignan gp (600 μg/day), age wk 16) was 21% and the “% of mice” value [6, 22] was 23%. The “% of mice” value ([6]; Low-Lignan gp (600 μg/day), age wk 18) was 38%, the “% of mice” value [6, 23] was 38% and the “% of mice” value ([6]; Low-Lignan gp (600 μg/day), age wk 20) was 38%. The “% of mice” value [6, 24] was 27%, the “% of mice” value ([6]; Low-Lignan gp (600 μg/day), age wks 6-8) was 0% and the onset of proteinuria ([6]; low and high dosages) was “delay the onset of proteinuria”. For the same molecule, the prevalence of proteinuria ([6]; low and high dosages) was “reduce the prevalence of proteinuria”, the “dose dependence of benefit on GFR” value ([7]; 600 and 1200 μg/day) was “dose-dependant benefit” and the GFR ([7]; High-Lignan (1200 μg/day), 14 wks of age, n = 9) was 8.09 ± 2.74 ml/min/kg body weight. For the same molecule, the GFR ([7]; High-Lignan (1200 μg/day), 22 wks of age, n = 10) was 5.33 ± 3.16 ml/min/kg body weight, the GFR ([7]; Low-Lignan (600 μg/day), 14 wks of age, n = 10) was 7.41 ± 3.88 ml/min/kg body weight and the GFR ([7]; Low-Lignan (600 μg/day), 22 wks of age, n = 10) was 4.81 ± 1.49 ml/min/kg body weight. The “decline of renal function (GFR)” value ([7]; compared to vehicle treated control group) was “attenuates the decline of renal function (GFR)”, the metabolism on ingestion ([8]; enzymatic hydrolysis and intestinal microflora) was “enzymatically hydrolyzed to the aglycone and transformed by intestinal microflora into enterodiol and enterolactone” and the “absorption across the gut wall” value ([8]; generally accepted for diglycosides) was “not absorbed across the gut wall”.

In the case of CC/C=C\C/C=C\C/C=C\CCCCCCCC(=O)O [alpha-linolenic acid], the LDL cholesterol [9] is listed as “lower”, the “PAF production by PMN leucocytes” value [9] is listed as “lower” and the cell mediated immunity [9] is listed as “lower”. For the same molecule, the platelet aggregation [9] was “lower”.

In the case of OC[C@H](Cc1cccc(O)c1)[C@H](CO)Cc1cccc(O)c1 [enterodiol], the “mammalian lignans in the urine” value [10] is reported as “only traces”.

In the case of COc1cc(CC(CO)C(CO)Cc2ccc(O)c(OC)c2)ccc1O (stereo not drawn) [secoisolariciresinol], the “secoisolariciresinol concentrations in the urine” value [10] is reported as “SDG dose dependent”.
